Results reported in patent publication US8859543B2, “Imidazo[1,2-a]pyrazine derivatives and their use for the prevention or treatment of neurological, psychiatric and metabolic disorders and diseases” (Janssen Pharmaceutica NV, priority 2010, dated 2014).
Like-named read-outs stand apart in the source and are kept apart here.

Assays:
[1] = molecular target: T1, Rat recombinant PDE10A (rPDE10A2) (Rattus norvegicus, UniProt Q9QYJ6); assay: In vitro assay PDE10A (SPA, 3H-cAMP); assay type: biochemical; settings: pIC50 corresponds to the -log IC50 expressed in mol/L; for IC50: read-out: PDE10A2 pIC50 (converted)
T1 construct: made in house; host or cells: Sf9 insect cells, baculovirus
T1 sequence (Q9QYJ6 1-794): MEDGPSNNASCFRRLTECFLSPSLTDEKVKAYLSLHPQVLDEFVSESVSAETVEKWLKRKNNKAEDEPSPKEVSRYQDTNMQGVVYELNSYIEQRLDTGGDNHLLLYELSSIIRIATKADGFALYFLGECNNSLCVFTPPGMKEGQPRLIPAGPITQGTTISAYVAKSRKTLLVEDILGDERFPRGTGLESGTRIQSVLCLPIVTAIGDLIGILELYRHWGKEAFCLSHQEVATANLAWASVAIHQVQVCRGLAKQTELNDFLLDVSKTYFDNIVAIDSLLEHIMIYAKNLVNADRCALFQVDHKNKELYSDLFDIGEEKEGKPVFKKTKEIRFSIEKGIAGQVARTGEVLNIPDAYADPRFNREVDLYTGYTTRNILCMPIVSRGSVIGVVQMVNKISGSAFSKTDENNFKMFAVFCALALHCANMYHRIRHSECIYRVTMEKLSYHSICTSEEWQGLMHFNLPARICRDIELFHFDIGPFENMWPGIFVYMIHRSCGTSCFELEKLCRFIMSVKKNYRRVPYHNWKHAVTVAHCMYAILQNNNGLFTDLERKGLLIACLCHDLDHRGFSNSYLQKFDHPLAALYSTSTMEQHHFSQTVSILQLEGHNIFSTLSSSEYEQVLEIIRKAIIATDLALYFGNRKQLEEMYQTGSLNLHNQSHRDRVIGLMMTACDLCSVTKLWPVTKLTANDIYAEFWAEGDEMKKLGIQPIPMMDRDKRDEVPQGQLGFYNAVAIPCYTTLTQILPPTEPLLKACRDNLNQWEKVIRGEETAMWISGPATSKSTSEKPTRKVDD
Experimental: Rat recombinant PDE10A (rPDE10A2) was expressed in Sf9 cells using a recombinant rPDE10A baculovirus construct. Cells were harvested after 48 h of infection and the rPDE10A protein was purified by metal chelate chromatography on Ni-sepharose 6FF. Tested compounds were dissolved and diluted in 100% DMSO to a concentration 100 fold of the final concentration in the assay. Compound dilutions (0.4 μl) were added in 384 well plates to 20 μl of incubation buffer (50 mM Tris pH 7.8, 8.3 mM MgCl2, 1.7 mM EGTA). 10 μl of rPDE10A enzyme in incubation buffer was added and the reaction was started by addition of 10 μl substrate to a final concentration of 60 nM cAMP and 0.008 μCi ^3H-cAMP. The reaction was incubated for 60 min. at RT. […] After sedimentation of the beads during 30 min. the radioactivity was measured in a Perkin Elmer Topcount scintillation counter and results were expressed as cpm. For blank values the enzyme was omitted from the reaction and replaced by incubation buffer. Control values were obtained by addition of a final concentration of 1% DMSO instead of compound. The same assay principle is applied for the measurement of the affinity of the compound for other members of the PDE family with appropriate modifications in incubation buffer, substrate concentration, incubation time and stop solution.

[2] = system: apomorphine-induced stereotypy; assay: Apomorphine-induced stereotypy in rats (APO); assay type: in vivo; settings: Rattus norvegicus
Experimental: Apomorphine-Induced Stereotypy in Rats (APO)
Apomorphine (1.0 mg/kg, i.v.)-induced stereotypy (compulsive sniffing, licking, chewing) was scored every 5 min. over the first hour after injection of apomorphine, following a 1 hour interval pre-treatment with the test compound. The score system was: (3) pronounced, (2) moderate, (1) slight, and (O) absent.

[3] = molecular target: T2, PDE10 (Rattus norvegicus, UniProt Q9QYJ6); assay: PDE10 occupancy ([3H]-MP-10, striatum); assay type: in vivo; settings: for ED50: rat, sc, occupancy, read-out: Occ. ED50
T2 construct: from tissue; host or cells: rat brain sections, striatum (ex vivo autoradiography after in vivo dosing)
T2 sequence (Q9QYJ6 1-794): T1 sequence (Q9QYJ6 1-794)
Experimental: Dose-response or single dose experiments were performed to measure PDE10 occupancy 1 hour after subcutaneous (s.c.) or oral (p.o.) administration. Male Wistar rats (200 g) were treated by s.c. or p.o. administration of various PDE10 inhibitors. The PDE10 radioligand [^3H]-MP-10 (10 μCi/animal) was injected intravenously (i.v.) 30 minutes before sacrifice. Brains were immediately removed from the skull and rapidly frozen. Twenty μm-thick brain sections were cut using a cryostat-microtome, thaw-mounted on microscope slides and loaded in a β-imager to quantify PDE10 occupancy in the striatum.

[4] = system: PCP-induced hyperlocomotion; assay: PCP-induced hyperlocomotion in rats (PCP); assay type: in vivo; settings: Rattus norvegicus
[5] = not active at 2.5 or at 10 mg/kg, not further tested, read-out: APO ED50 (not active at threshold dose)
[6] = po, * compound was not soluble and was tested orally as a suspension, read-out: APO ED50

| Compound | IC50 [1] | ED50 ([2]; read-out: APO ED50) | ED50 [2, 5] | other results |
| --- | --- | --- | --- | --- |
| COC[C@@H](C)n1cc(-c2c(C)nc3c(N4CCOCC4)nccn23)cn1 [compound 110] | 214 nM | 3.1 mg/kg |  |  |
| Cc1nc2c(N3CCOCC3)nccn2c1-c1ccnc(NC(C)C)c1 [compound 22, Isopropyl-[4-(2-methyl-8-morpholin-4-yl-imidazo[1,2-a]pyrazin-3-yl)-pyridin-2-yl]-amine] | 97.7 nM |  | > 2.5 mg/kg |  |
| COC(C)CCn1cc(-c2c(C)nc3c(N4CCOCC4)nccn23)cn1 (single isomer, unassigned) [compound 84] | 117 nM |  | > 2.5 mg/kg |  |
| Cc1nc2c(N3CCOCC3)nccn2c1-c1cnn(CC2CCCO2)c1 (single isomer, unassigned) [compound 90] | 135 nM |  | > 2.5 mg/kg |  |
| COCCc1ccc(-c2cnc3c(N4CCOCC4)nccn23)cn1 [compound 136] | 575 nM |  | > 2.5 mg/kg |  |
| COC(C)(C)c1ccc(-c2c(C)nc3c(N4CCOCC4)nccn23)cn1 [compound 30, 3-[6-(1-Methoxy-1-methyl-ethyl)-pyridin-3-yl]-2-methyl-8-morpholin-4-yl-imidazo[1,2-a]pyrazine] | 107 nM | 1.2 mg/kg |  | ED50 ([3]; administered s.c.): 3.4 mg/kg |
| Cc1nc2c(N3CCOCC3)nccn2c1-c1ccc(N2CCOCC2)nc1 [compound 4, 2-Methyl-8-morpholin-4-yl-3-(6-morpholin-4-yl-pyridin-3-yl)-imidazo[1,2-a]pyrazine] | 141 nM | 3.1 mg/kg |  | % Occ. at 10 mg/kg ([3]; administered s.c.): 28% |
| Cc1nc2c(N3CCOCC3)nccn2c1-c1cnn(Cc2ccccc2Cl)c1 [compound 94] |  |  | > 2.5 mg/kg | PDE10A2 pIC50 [1]: 6.86 |
| Cc1nc2c(N3CCOCC3)nccn2c1-c1cnn(Cc2cccnc2)c1 [compound 65] | 85.1 nM | 5 mg/kg |  |  |
| Cc1nc2c(N3CCOCC3)nccn2c1-c1cnn(CCF)c1 [compound 96] | 141 nM | 5 mg/kg |  |  |
| COCCn1cc(-c2c(C(F)(F)F)nc3c(N4CCOCC4)nccn23)cn1 [compound 118] |  |  | > 2.5 mg/kg | PDE10A2 pIC50 [1]: 6.51; % Occ. at 10 mg/kg ([3]; administered s.c.): 0% |
| FC(F)(F)Cn1cc(-c2c(C3CC3)nc3c(-c4ccncc4)nccn23)cn1 [compound 45] | 20 nM |  |  | % Occ. at 10 mg/kg ([3]; administered p.o. (a)): 53^a %; ED50 [2, 6]: 3.1 mg/kg |
| COCCn1cc(-c2cnc3c(N4CCOCC4)nccn23)cn1 [compound 141] | 955 nM | 5 mg/kg |  |  |
| Cc1nc2c(-c3ccncc3)nccn2c1-c1cnn(CC(F)(F)F)c1 [compound 67] | 85.1 nM |  |  | % Occ. at 10 mg/kg ([3]; administered s.c.): 55%; ED50 [2, 6]: 3.1 mg/kg |
| COCCn1cc(-c2c(C3CC3)nc3c(N4CCOCC4)nccn23)cn1 [compound 53] |  | 5 mg/kg |  | PDE10A2 pIC50 [1]: 7.27; ED50 [4]: ≤ 40 mg/kg |
| COCCc1ccc(-c2c(OC)nc3c(N4CCOCC4)nccn23)cn1 [compound 15, 2-Methoxy-3-[6-(2-methoxy-ethyl)-pyridin-3-yl]-8-morpholin-4-yl-imidazo[1,2-a]pyrazine] |  | 1.2 mg/kg |  | ED50 ([3]; administered s.c.): 1.5 mg/kg |
| CC(=O)CCn1cc(-c2c(C)nc3c(N4CCOCC4)nccn23)cn1 [compound 36, 4-[4-(2-Methyl-8-morpholin-4-yl-imidazo[1,2-a]pyrazin-3-yl)-pyrazol-1-yl]-butan-2-one] | 138 nM | 3.1 mg/kg |  |  |
